In patent EP4745135A1 (Gluetacs Therapeutics (Shanghai) Co., Ltd., priority 2023, dated 2025):
Read-outs that look alike come from different tables or passages of the source.

How the values were obtained:
[1] = biological target: T1, CK1α (Homo sapiens, UniProt P48729+Q96SW2); experiment: Western blot, degradation of substrate protein in hPBMCs; assay type: cell-based; conditions: Western blot, 24 hours of compound treatment, compounds tested at 50 nM and 500 nM (concentration for the table not stated)
T1 construct: effects of the compounds of the present disclosure on the expression of target proteins in cells; endogenous in cells; host or cells: human PBMCs (Milecell Biotechnologies)

[2] = biological target: T2, IKZF1 (Homo sapiens, UniProt Q13422+Q96SW2); experiment: as above; assay type: cell-based; conditions: Western blot, 24 hours of compound treatment, compounds tested at 50 nM and 500 nM (concentration for the table not stated)
T2 construct: effects of the compounds of the present disclosure on the expression of target proteins in cells; endogenous in cells; host or cells: human PBMCs (Milecell Biotechnologies)

[3] = biological target: T3, IKZF2 (Homo sapiens, UniProt Q96SW2+Q9UKS7); experiment: as above; assay type: cell-based; conditions: Western blot, 24 hours of compound treatment, compounds tested at 50 nM and 500 nM (concentration for the table not stated)
T3 construct: effects of the compounds of the present disclosure on the expression of target proteins in cells; endogenous in cells; host or cells: human PBMCs (Milecell Biotechnologies)

[4] = biological target: T4, IKZF3 (Homo sapiens, UniProt Q96SW2+Q9UKT9); experiment: as above; assay type: cell-based; conditions: Western blot, 24 hours of compound treatment, compounds tested at 50 nM and 500 nM (concentration for the table not stated)
T4 construct: effects of the compounds of the present disclosure on the expression of target proteins in cells; endogenous in cells; host or cells: human PBMCs (Milecell Biotechnologies)

[5] = biological target: T5, WEE1 (Homo sapiens, UniProt P30291+Q96SW2); experiment: as above; assay type: cell-based; conditions: Western blot, 24 hours of compound treatment, compounds tested at 50 nM and 500 nM (concentration for the table not stated)
T5 construct: effects of the compounds of the present disclosure on the expression of target proteins in cells; endogenous in cells; host or cells: human PBMCs (Milecell Biotechnologies)

[6] = tested on: GSPT1; experiment: as above; assay type: cell-based, Human; conditions: Western blot, 24 hours of compound treatment, compounds tested at 50 nM and 500 nM (concentration for the table not stated)
[7] = biological target: T6, human Cereblon WT GST-tagged protein (Homo sapiens, UniProt Q96SW2); experiment: CRBN-binding affinity, HTRF (CEREBLON BINDING kit)
T6 construct: purchased CISBIO 64BDCRBNPEH

[8] = tested on: Human multiple myeloma cell (MM.1S); experiment: Tumor cell proliferation inhibition (CellTiter-Meiluncell luminescent cell viability assay); conditions: Homo sapiens, MM1.S, 96 h, read-out: Inhibitory activity (IC50, nM) on tumor cell proliferation, MM.1S
[9] = tested on: Human breast cancer cell (MCF-7); experiment: as above; conditions: MCF7, 96 h, read-out: Inhibitory activity (IC50, nM) on tumor cell proliferation, MCF7
[10] = tested on: Human T lymphocytic leukemia cell line: Jurkat; experiment: as above; conditions: 96 h, read-out: Inhibitory activity (IC50, nM) on tumor cell proliferation, Jurkat
Procedure: (§1) The tumor cells used herein were cultured in a cell culture medium listed in table 2 at 37°C in an incubator with 5% CO2. Prior to experimentation, all cell lines used were correctly identified by STR profiling, and tested negative for mycoplasma contamination using a mycoplasma detection kit through routine screenings.
(§2) The IC50 values of the compounds of the present disclosure (including the compounds in Table 1 and Examples) were determined using the CellTiter-Meiluncell Luminescent Cell Viability Assay Kit from Dalian Meilun Biotech Co., Ltd. The detailed procedure is as follows: Tumor cells were seeded in 96-well cell culture plates at the densities specified in Table 3. On the following day, the test compounds of the present disclosure were subjected to serial dilution. The dilution can be performed according to one of the following two methods: • (1) The first dilution method: The test compounds of the present disclosure (including the compounds in Table 1 and Examples) were subjected to 5-fold serial dilutions starting from a highest concentration of 2000 µM, resulting in a total of 9 concentrations from high to low (2000, 400, 80, 16, 3.2, 0.64, 0.128, 0.0256, 0.00512 µM). Subsequently, 0.5 µL of the test compound dilution was transferred into the 96-well plate containing the cells, with each well containing 100 µL of cell culture medium. […] Into the 96-well plate, the diluted test compounds and corresponding detection reagents were added, resulting in final test compound concentrations of 500 nM and 10 nM, respectively. The experimental procedure is described below using the diluted 2 µM test compound as an example.
(§3) 0.5 µL of the aforementioned diluted compound of the present disclosure (including the compounds in Table 1 and Examples) was added to the seeded cells in 100 µL of medium, yielding a final test compound concentration of 10 nM. After the cells were treated with the compounds of the present disclosure for a specified period, the cell viability assay reagent was added to the culture medium according to the kit's instructions to determine cell viability. […] All controls were treated using the same procedure as the compounds of the present disclosure. The growth inhibition curves for the compounds of the present disclosure were plotted using Prism GraphPad software, and the IC50 values were calculated therefrom.

[11] = tested on: Human non-small cell lung cancer cell line: NCI-H1975; experiment: as above; conditions: NCI-H1975, 96 h, read-out: Inhibitory activity (IC50, nM) on tumor cell proliferation, H1975
Procedure: as §1, §2, §3

[12] = tested on: Human mantle cell lymphoma cell line: JEKO-1; experiment: as above; conditions: JeKo-1, 96 h, read-out: Inhibitory activity (IC50, nM) on tumor cell proliferation, JEKO-1
Procedure: as §1, §2, §3

[13] = tested on: Human gastric cancer cell line: MGC803; experiment: as above; conditions: MGC-803, read-out: Inhibitory activity (IC50, nM) on tumor cell proliferation, MGC803
Procedure: as §2, §3

[14] = CRBN binding, HTRF, 3 hours at room temperature; read-out: HTRF IC50

T6 sequence (Q96SW2 whole entry): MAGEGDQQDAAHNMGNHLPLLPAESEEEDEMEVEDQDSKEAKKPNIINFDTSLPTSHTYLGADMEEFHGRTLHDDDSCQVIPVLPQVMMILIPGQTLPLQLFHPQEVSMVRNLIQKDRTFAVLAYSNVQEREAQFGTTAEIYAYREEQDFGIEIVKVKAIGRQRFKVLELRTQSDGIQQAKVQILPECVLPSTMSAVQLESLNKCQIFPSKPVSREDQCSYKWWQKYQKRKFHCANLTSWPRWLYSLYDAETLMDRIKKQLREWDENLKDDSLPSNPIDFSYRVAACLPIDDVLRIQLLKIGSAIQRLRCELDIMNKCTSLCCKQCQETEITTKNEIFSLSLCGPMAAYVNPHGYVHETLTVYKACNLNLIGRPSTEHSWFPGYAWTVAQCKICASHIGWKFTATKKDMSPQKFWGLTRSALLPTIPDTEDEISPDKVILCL
T2 sequence (Q13422 whole entry): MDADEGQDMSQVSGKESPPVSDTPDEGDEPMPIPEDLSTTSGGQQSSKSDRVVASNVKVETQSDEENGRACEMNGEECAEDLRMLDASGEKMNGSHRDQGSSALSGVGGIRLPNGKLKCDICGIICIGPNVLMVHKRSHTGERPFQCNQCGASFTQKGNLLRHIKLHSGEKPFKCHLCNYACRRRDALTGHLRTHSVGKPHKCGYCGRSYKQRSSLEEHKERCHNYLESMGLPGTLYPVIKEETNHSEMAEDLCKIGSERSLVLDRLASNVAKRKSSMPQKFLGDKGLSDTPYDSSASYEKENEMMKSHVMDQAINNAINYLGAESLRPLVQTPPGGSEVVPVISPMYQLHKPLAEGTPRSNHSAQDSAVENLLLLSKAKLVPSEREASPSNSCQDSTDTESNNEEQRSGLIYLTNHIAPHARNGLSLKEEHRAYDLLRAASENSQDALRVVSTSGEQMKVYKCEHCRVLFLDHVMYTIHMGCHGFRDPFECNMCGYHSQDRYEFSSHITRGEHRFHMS
T2 sequence (Q96SW2 whole entry): as the sequence (Q96SW2 whole entry) above
T2 sequence (Q16531 whole entry partner): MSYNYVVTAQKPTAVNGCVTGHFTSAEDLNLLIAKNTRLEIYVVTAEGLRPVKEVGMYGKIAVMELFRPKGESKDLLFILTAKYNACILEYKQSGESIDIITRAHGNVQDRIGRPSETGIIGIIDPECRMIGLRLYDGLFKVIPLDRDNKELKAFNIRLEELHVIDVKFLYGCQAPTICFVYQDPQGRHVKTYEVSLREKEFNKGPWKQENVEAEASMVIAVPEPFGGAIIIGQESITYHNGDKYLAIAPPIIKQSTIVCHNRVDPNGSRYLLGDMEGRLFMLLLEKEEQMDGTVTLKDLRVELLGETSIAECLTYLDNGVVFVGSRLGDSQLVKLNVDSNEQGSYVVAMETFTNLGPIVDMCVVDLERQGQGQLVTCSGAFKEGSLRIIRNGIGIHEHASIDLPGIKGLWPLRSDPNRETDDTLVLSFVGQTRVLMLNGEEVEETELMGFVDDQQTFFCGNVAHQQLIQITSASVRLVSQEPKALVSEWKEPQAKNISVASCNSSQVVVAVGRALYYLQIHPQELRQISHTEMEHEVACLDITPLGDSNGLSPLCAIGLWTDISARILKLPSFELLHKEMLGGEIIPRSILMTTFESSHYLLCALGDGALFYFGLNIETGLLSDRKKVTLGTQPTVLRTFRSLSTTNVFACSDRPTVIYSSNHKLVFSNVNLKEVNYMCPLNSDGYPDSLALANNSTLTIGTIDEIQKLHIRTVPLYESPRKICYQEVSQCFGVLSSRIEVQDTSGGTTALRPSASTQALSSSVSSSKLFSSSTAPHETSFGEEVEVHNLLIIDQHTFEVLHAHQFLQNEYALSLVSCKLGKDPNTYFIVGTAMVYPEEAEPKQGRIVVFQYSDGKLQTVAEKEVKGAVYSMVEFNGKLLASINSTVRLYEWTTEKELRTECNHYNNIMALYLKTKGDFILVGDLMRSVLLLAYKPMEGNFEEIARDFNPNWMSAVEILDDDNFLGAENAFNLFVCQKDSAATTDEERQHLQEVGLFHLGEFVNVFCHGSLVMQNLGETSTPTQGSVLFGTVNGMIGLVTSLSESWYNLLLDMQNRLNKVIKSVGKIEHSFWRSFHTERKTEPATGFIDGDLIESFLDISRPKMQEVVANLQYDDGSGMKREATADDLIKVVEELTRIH
T5 sequence (P30291 whole entry): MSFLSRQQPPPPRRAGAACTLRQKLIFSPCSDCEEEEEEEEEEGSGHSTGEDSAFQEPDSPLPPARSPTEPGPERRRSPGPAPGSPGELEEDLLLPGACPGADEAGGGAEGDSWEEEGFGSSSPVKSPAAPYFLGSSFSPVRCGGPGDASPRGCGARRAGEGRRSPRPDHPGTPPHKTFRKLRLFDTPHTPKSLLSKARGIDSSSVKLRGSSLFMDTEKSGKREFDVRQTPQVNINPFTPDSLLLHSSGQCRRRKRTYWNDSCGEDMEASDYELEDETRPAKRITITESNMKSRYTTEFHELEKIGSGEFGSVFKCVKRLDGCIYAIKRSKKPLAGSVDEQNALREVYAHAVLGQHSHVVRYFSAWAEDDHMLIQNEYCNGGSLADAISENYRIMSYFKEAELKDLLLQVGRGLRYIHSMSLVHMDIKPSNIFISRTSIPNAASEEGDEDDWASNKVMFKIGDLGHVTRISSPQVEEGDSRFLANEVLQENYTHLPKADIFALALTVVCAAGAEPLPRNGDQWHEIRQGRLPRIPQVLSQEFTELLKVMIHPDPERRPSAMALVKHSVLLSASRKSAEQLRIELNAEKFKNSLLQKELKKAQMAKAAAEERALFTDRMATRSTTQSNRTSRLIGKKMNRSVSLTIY
T5 sequence (Q96SW2 whole entry): as the sequence (Q96SW2 whole entry) above
T5 sequence (Q16531 whole entry partner): as the sequence (Q16531 whole entry partner) above
T3 sequence (Q9UKS7 whole entry): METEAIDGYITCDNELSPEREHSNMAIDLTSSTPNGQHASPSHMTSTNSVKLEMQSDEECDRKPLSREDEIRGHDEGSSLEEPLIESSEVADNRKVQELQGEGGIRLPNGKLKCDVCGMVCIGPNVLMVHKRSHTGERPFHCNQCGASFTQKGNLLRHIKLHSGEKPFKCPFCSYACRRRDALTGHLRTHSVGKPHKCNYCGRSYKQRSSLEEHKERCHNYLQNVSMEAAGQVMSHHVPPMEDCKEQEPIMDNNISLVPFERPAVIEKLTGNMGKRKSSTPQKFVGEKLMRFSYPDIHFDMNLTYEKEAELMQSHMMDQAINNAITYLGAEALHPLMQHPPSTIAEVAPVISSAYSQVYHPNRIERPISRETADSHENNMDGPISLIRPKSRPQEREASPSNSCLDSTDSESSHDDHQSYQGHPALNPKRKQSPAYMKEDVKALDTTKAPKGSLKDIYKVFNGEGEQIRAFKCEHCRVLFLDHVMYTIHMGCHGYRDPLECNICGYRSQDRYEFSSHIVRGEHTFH
T3 sequence (Q96SW2 whole entry): as the sequence (Q96SW2 whole entry) above
T3 sequence (Q16531 whole entry partner): as the sequence (Q16531 whole entry partner) above
T4 sequence (Q9UKT9 whole entry): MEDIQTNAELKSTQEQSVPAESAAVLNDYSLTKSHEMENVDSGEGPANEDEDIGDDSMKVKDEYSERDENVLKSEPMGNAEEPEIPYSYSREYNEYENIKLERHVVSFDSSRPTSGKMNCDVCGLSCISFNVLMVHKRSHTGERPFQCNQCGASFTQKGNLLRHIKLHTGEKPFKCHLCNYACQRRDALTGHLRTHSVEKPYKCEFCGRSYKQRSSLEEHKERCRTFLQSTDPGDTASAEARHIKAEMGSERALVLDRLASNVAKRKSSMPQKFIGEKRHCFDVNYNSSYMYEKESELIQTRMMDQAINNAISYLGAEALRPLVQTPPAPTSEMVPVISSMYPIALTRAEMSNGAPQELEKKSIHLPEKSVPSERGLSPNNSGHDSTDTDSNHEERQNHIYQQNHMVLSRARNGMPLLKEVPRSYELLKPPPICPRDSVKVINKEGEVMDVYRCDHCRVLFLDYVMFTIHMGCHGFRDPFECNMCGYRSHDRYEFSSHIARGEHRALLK
T4 sequence (Q96SW2 whole entry): as the sequence (Q96SW2 whole entry) above
T4 sequence (Q16531 whole entry partner): as the sequence (Q16531 whole entry partner) above
T1 sequence (P48729 whole entry): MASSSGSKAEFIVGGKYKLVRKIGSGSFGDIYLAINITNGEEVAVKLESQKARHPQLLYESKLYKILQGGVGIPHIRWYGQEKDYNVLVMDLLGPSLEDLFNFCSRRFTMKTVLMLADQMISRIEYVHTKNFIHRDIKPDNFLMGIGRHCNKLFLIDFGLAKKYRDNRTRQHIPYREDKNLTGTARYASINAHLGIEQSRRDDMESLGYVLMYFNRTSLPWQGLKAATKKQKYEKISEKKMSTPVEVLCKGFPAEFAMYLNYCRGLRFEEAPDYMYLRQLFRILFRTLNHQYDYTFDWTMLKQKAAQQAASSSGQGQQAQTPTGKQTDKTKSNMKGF
T1 sequence (Q96SW2 whole entry): as the sequence (Q96SW2 whole entry) above
T1 sequence (Q16531 whole entry partner): as the sequence (Q16531 whole entry partner) above

Row | Structure (SMILES) | CK1α substrate protein remaining % [1] | IKZF 1 substrate protein remaining % [2] | IKZF2 substrate protein remaining % [3] | IKZF3 substrate protein remaining % [4] | Wee1 substrate protein remaining % [5] | GSPT1 substrate protein remaining % [6] | IC50 [7, 14] | IC50 [8] | IC50 [9] | IC50 [10] | IC50 [11] | IC50 [12] | IC50 [13] | IC50 ([7]; read-out: HTRF IC50; CRBN binding, HTRF, 3 hours at room temperature)
1 | Cc1ccc(C2=CCN(Cc3ccc4c(c3)CN(C3CCC(=O)NC3=O)C4=S)CC2)s1 (stereo not shown) [GT-05111, 3-(5-((4-(5-methylthiophen-2-yl)-3,6-dihydropyridin-1(2H)-yl)methyl)-1-thioxoisoindolin-2-yl)piperidine-2,6-dione] | A (0% ≤ substrate protein remaining % ≤ 80%) | A (0% ≤ substrate protein remaining % ≤ 80%) | A (0% ≤ substrate protein remaining % ≤ 80%) | A (0% ≤ substrate protein remaining % ≤ 80%) | A (0% ≤ substrate protein remaining % ≤ 80%) | A (0% ≤ substrate protein remaining % ≤ 80%) | 100 to 500 nM | 10 to 50 nM | 100 to 500 nM | 50 to 100 nM | 50 to 100 nM | 50 to 100 nM | 100 to 500 nM | –
2 | O=C1CCC(N2Cc3cc(CN4CCC(Nc5ccccc5-c5ccc(Cl)cc5)CC4)ccc3C2=S)C(=O)N1 (stereo not shown) [GT-05109, 3-(5-((4-((4'-chloro-[1,1'-biphenyl]-2-yl)amino)piperidin-1-yl)methyl)-1-thioxoisoindolin-2-yl)piperidine-2,6-dione] | A (0% ≤ substrate protein remaining % ≤ 80%) | A (0% ≤ substrate protein remaining % ≤ 80%) | A (0% ≤ substrate protein remaining % ≤ 80%) | A (0% ≤ substrate protein remaining % ≤ 80%) | A (0% ≤ substrate protein remaining % ≤ 80%) | A (0% ≤ substrate protein remaining % ≤ 80%) | 500 to 1000 nM | < 5 nM | 10 to 50 nM | < 5 nM | 5 to 10 nM | 5 to 10 nM | 10 to 50 nM | –
3 | O=C1CCC(N2Cc3cc(CN4CCC(N(c5ccccc5)c5ccccc5)CC4)ccc3C2=S)C(=O)N1 (stereo not shown) | B (80%< substrate protein remaining %≤ 100%) | A (0% ≤ substrate protein remaining % ≤ 80%) | A (0% ≤ substrate protein remaining % ≤ 80%) | A (0% ≤ substrate protein remaining % ≤ 80%) | A (0% ≤ substrate protein remaining % ≤ 80%) | A (0% ≤ substrate protein remaining % ≤ 80%) | – | < 5 nM | 10 to 50 nM | < 5 nM | 5 to 10 nM | < 5 nM | 5 to 10 nM | 100 to 500 nM
4 | Cc1ccc(Sc2ccccc2N2CCN(Cc3ccc4c(c3)CN(C3CCC(=O)NC3=O)C4=S)CC2)c(C)c1 (stereo not shown) [GT-05092, 3-(5-((4-(2-((2,4-dimethylphenyl)thio)phenyl)piperazin-1-yl)methyl)-1-thioxoisoindolin-2-yl)piperidine-2,6-dione] | B (80%< substrate protein remaining %≤ 100%) | A (0% ≤ substrate protein remaining % ≤ 80%) | A (0% ≤ substrate protein remaining % ≤ 80%) | A (0% ≤ substrate protein remaining % ≤ 80%) | A (0% ≤ substrate protein remaining % ≤ 80%) | A (0% ≤ substrate protein remaining % ≤ 80%) | 500 to 1000 nM | 10 to 50 nM | 100 to 500 nM | 50 to 100 nM | 50 to 100 nM | 10 to 50 nM | 100 to 500 nM | –
